Results on 21 compounds are retold here after patent publication US12479836B2, “Sphingosine-1-phosphate receptor agonist, preparation method therefor, and pharmaceutical composition containing same as active ingredient” (priority 2019, dated 2025).

pEC50: −log10 of the molar value.

In the test the target is T1, human sphingosine-1-phosphate 1 receptor (S1P1 receptor) (Homo sapiens, UniProt P21453).
T1 construct: host or cells: CHO-K1
T1 sequence (P21453 whole entry): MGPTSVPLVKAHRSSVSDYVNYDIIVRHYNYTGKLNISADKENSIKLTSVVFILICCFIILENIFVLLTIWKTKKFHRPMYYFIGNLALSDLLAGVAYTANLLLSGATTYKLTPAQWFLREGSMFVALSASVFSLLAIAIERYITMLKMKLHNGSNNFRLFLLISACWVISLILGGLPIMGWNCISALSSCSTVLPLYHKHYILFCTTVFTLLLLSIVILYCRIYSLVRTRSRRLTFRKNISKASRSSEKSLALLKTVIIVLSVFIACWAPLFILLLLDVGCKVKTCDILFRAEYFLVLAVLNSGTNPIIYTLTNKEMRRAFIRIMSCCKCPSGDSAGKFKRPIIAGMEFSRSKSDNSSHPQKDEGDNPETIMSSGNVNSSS
Description: Ca2+ inducing ability (calcium increase, Calcium 5 assay kit) in CHO cells overexpressing human S1P1 receptor. The class given is cell-based. Here is the method: Experimental Example: Evaluation of Ca^2+ Inducing Ability of a Test Compound Using a Cell Line Expressing Human Sphingosine-1-Phosphate
It is a functional test method in which a therapeutic efficacy of an agonist compound is determined by an increase in calcium in CHO (Chinese hamster ovary) cells, which overexpress human sphingosine-1-phosphate 1 receptor (S1P1 receptor) that react with sphingosine-1-phosphate (S1P). […] coupled to Gi protein that reacts with the S1P1 receptor and increases intracellular calcium concentration. CHO-K1 cells, which are used for preparing a stable cell line, show no change in the calcium concentration by S1P, and thus they are good for checking signals from human S1P receptors after transfecting the cells with each subtype of the receptors.
To prepare CHO cells which overexpress human S1P1-S1P5, human clones for each subtype having HA at the N terminal residue (S1P1: EDG010 TN00, S1P2: EDG020TN00, S1P3: EDG030TN00, S1P4: EDG060TN00, S1P5: EDG080TN00) were purchased from Missouri S&T cDNA Resource Center and co-transfected with G-protein alpha subunit (G-alpha-16) into CHO-K1 cells. After separating cells by fluorescence-activated cell sorting (FACS, LK BioScience, JSAN) using HA-antibodies (MACS, Anti-HA-PE), they were selectively cultured in the medium with 10% FBS (Gibco, USA), 0.5 mg/mL Geneticin (Gibco) and 0.2 mg/mL Hygromycin B F12 (Gibco) to obtain the desired cells.
A calcium measurement kit (Calcium 5 assay kit, Molecular Devices) was used to select an agonist compound. The principle of calcium measurement is that calcium-sensitive dyes are applied to cells, they enter into the cytoplasm of the cells during incubation, and when a ligand binds to a certain receptor to release calcium into the cytoplasm, the dyes bind to said calcium to induce fluorescence which is measured. This test method can sensitively measure only the intracellular calcium concentration change because any change that may occur outside the cells is masked by a masking dye.
The experimental procedure was as follows. One day before calcium measurement, CHO cells overexpressing hS1P1-hS1P5 were dispensed into a 96-well plate (bottom clear black well) in 3×10^4 cells per well and cultured at 37° C. under 5% carbon dioxide condition for one day. 100 μl of calcium dyes mixed with Assay Buffer (1×HBSS, 20 mM HEPES, 2.5 mM probenecid, pH 7.4) were dispensed into culture solution in well and cultured at 37° C. for one hour. Test compounds were dissolved in 100% DMSO to prepare 1 μl solution per each concentration, and each solution was mixed with 199 μl Assay Buffer such that the concentrations were […]. The plate cultured with the calcium dyes was put into FlaxstationII (Molecular Devices), and the prepared test compounds (the final concentrations of the test compounds: 10, 1, 0.1, 0.01, 0.001 and 0.0001 μM) were programmed to be automatically inoculated in 50 μl per each well. For a total of 90 seconds, relative fluorescence unit (RFU) values were measured. The value of Reference (S1P substance 1 μM) deducting the blank value was set as 100%, and EC50 values of the test compounds were calculated by prism.
For `CC(C)n1nc(Cl)c2cc(COc3ccc4c(c3)OCC(CN(C)CC(=O)O)=C4)ccc21` [Example 1, {[7-(3-chloro-1-isopropyl-1H-indazol-5-ylmethoxy)-2H-chromene-3-ylmethyl]-methyl-amino}-acetic acid], the pEC50 is 8.39.
As for `CC(C)n1nc(Cl)c2cc(COc3ccc4c(c3)OCC(CN3CC(C(=O)O)C3)=C4)ccc21` [Example 2, 1-[7-(3-chloro-1-isopropyl-1H-indazol-5-ylmethoxy)-2H-chromene-3-ylmethyl]-azetidin-3-carboxylic acid], the pEC50 is 8.68.
The result for `CCCn1nc2ccc(COc3ccc4c(c3)OCC(CN3CC(C(=O)O)C3)=C4)cc2c1Cl` [Example 3, 1-[7-(3-chloro-2-propyl-2H-indazol-5-ylmethoxy)-2H-chromene-3-ylmethyl]-azetidin-3-carboxylic acid] reads 7.15; that for `CC(C)n1nc(Cl)c2cc(COc3ccc4c(c3)OCC(CN3CCC(C(=O)O)CC3)=C4)ccc21` [Example 4, 1-[7-(3-chloro-1-isopropyl-1H-indazol-5-ylmethoxy)-2H-chromene-3-ylmethyl]-piperidin-4-carboxylic acid], 8.04; that for `CC(C)n1nc(Cl)c2cc(COc3ccc4c(c3)OCC(CN3CCC[C@@H](C(=O)O)C3)=C4)ccc21` [Example 5, (R)-1-[7-(3-chloro-1-Isopropyl-1H-indazol-5-ylmethoxy)-2H-chromene-3-ylmethyl]-piperidin-3-carboxylic acid], 7.96.
The result for `CC(C)n1nc(Cl)c2cc(COc3ccc4c(c3)OCC(CN3CCC[C@H](C(=O)O)C3)=C4)ccc21` [Example 6, (S)-1-[7-(3-chloro-1-H-isopropyl-1H-indazol-5-ylmethoxy)-2H-chromene-3-ylmethyl]-piperidin-3-carboxylic acid] reads 7.89; that for `CC(C)n1nc(Cl)c2cc(COc3ccc4c(c3)OCC(CN3CC[C@H](C(=O)O)C3)=C4)ccc21` [Example 7, (S)-1-[7-(3-chloro-1-H-isopropyl-1H-indazol-5-ylmethoxy)-2H-chromene-3-ylmethyl]-pyrrolidin-3-carboxylic acid], 8.24.
Regarding `CC(C)n1nc(Cl)c2cc(COc3ccc4c(c3)OCC(CN3CC(CCl)(C(=O)O)C3)=C4)ccc21` [Example 8, 1-[7-(3-chloro-1-isopropyl-1H-indazol-5-ylmethoxy)-2H-chromene-3-ylmethyl]-chloromethyl-azetidin-3-carboxylic acid], the negative logarithm of the EC50 (pEC50) was 8.20.
As for `CC(C)n1nc(Cl)c2cc(COc3ccc4c(c3)OCC(CN3CC[C@@H](C(=O)O)C3)=C4)ccc21` [Example 9, (R)-1-[7-(3-chloro-1-Isopropyl-1H-indazol-5-ylmethoxy)-2H-chromene-3-ylmethyl]-pyrrolidin-3-carboxylic acid], the figure is 7.84; as for `CC1=C(CN2CCC(C(=O)O)CC2)COc2cc(OCc3ccc4c(c3)c(Cl)nn4C(C)C)ccc21` [Example 10, 1-[7-(3-chloro-1-Isopropyl-1H-indazol-5-ylmethoxy)-4-methyl-2H-chromene-3-ylmethyl]-piperidin-4-carboxylic acid], 8.56.
As for `CC(C)n1nc(Cl)c2cc(COc3ccc4c(c3)OCC(CN3CCC(C(=O)O)CC3)=C4Cl)ccc21` [Example 11, 1-[4-chloro-7-(3-chloro-1-H-isopropyl-1H-indazol-5-ylmethoxy)-2H-chromene-3-ylmethyl]-piperidin-4-carboxylic acid], the figure is 8.08.
In the case of `CC(C)n1nc(Cl)c2cc(COc3cc(F)c4c(c3)OCC(CN3CCC(C(=O)O)CC3)=C4)ccc21` [Example 12, 1-[7-(3-chloro-1-H-isopropyl-1H-indazol-5-ylmethoxy)-5-fluoro-2H-chromene-3-ylmethyl]-piperidin-4-carboxyl acid], the pEC50 was 7.84.
As to `CC(C)n1nc(C(F)(F)F)c2cc(COc3ccc4c(c3)OCC(CN3CCC(C(=O)O)CC3)=C4)ccc21` [Example 13, 1-[7-(1-Isopropyl-3-trifluoromethyl-1H-indazol-5-ylmethoxy)-2H-chromene-3-ylmethyl]-piperidin-4-carboxylic acid], the pEC50 was 7.76.
The result for `CCc1nn(C(C)C)c2ccc(COc3ccc4c(c3)OCC(CN3CCC(C(=O)O)CC3)=C4)cc12` [Example 14, 1-[7-(1-H-isopropyl-3-ethyl-1H-indazol-5-ylmethoxy)-2H-chromene-3-ylmethyl]-piperidin-4-carboxylic acid] reads 7.92.
The result for `CC(C)n1nc(Cl)c2cc(COc3ccc4c(c3)OCC(CN3CCCC(C(=O)O)CC3)=C4)ccc21` (stereo not drawn) [Example 15, 1-[7-(3-chloro-1-isopropyl-1H-indazol-5-ylmethoxy)-2H-chromene-3-ylmethyl]-azepane-4-carboxylic acid] reads 8.20.
On to `CCCn1nc(Cl)c2cc(COc3ccc4c(c3)OCC(CN3CC(C(=O)O)C3)=C4)ccc21` [Example 16, 1-[7-(3-chloro-1-propyl-1H-indazol-5-ylmethoxy)-2H-chromene-3-ylmethyl]-azetidin-3-carboxylic acid], for which the pEC50 is 7.36.
As for `CCCn1nc(Cl)c2cc(COc3ccc4c(c3)OCC(CN3CCC(C(=O)O)CC3)=C4)ccc21` [Example 17, 1-[7-(3-chloro-1-propyl-1H-Indazol-5-ylmethoxy)-2H-chromene-3-ylmethyl]-piperidin-4-carboxylic acid], the pEC50 was 7.68.
As for `O=C(O)C1CCN(CC2=Cc3ccc(OCc4ccc5c(c4)c(Cl)nn5CC4CC4)cc3OC2)CC1` [Example 18, 1-[7-(3-chloro-1-cyclopropylmethyl-1H-indazol-5-ylmethoxy)-2H-chromene-3-ylmethyl]-piperidin-4-carboxylic acid], the figure is 7.19.
The result for `O=C(O)C1CCN(CC2=Cc3c(F)cc(OCc4ccc5c(c4)c(Cl)nn5C4CCCC4)cc3OC2)CC1` [Example 19, 1-[7-(3-chloro-1-cyclopentyl-1H-indazol-5-ylmethoxy)-5-fluoro-2H-chromene-3-ylmethyl]-piperidin-4-carboxylic acid] reads 7.15; that for `CC(C)Cn1nc(Cl)c2cc(COc3cc(F)c4c(c3)OCC(CN3CCC(C(=O)O)CC3)=C4)ccc21` [Example 20, 1-[7-(3-chloro-1-isobutyl-1H-indazol-5-ylmethoxy)-5-fluoro-2H-chromene-3-ylmethyl]-piperidin-4-carboxylic acid], 8.29.
Take `CC(C)Cn1nc(Cl)c2cc(COc3cc(F)c4c(c3)OCC(CN3CCCC(C(=O)O)CC3)=C4)ccc21` (stereo not drawn) [Example 21, 1-[7-(3-chloro-1-Isobutyl-1H-indazol-5-ylmethoxy)-5-fluoro-2H-chromene-3-ylmethyl]-azepane-4-carboxylic acid]: the negative-log EC50 (pEC50) was 7.84.

The term pEC50 denotes the EC50 on a negative log10 scale, so that one unit is a factor of ten.
